Assay: Body weight change in dexamethasone muscle atrophy mouse model
Type: in vivo, C57BL/6 mice
Conditions: DEX group: dexamethasone 10 mg/kg/day i.p. 4 weeks, olive oil orally; at sacrifice
Method: Specifically, three-week-old male C57BL/6 mice were provided with free access to water and food and were acclimated under conditions of 23±2° C., relative humidity of 50±5%, and a 12-hour light/dark cycle. […] In the untreated group, an equivalent volume of saline was administered intraperitoneally. Body weight and food intake were evaluated daily. The experiment was conducted with the approval of the Pukyong National University Animal Care and Use Committee, in accordance with Pukyong National University's animal experiment ethics regulations.

## C[C@@H]1C[C@H]2[C@@H]3CCC4=CC(=O)C=C[C@]4(C)[C@@]3(F)[C@@H](O)C[C@]2(C)[C@@]1(O)C(=O)CO [DEX, dexamethasone]
  Body weight (g) Sacrifice [B]: 27.9 ± 3.25 g

From US20250025523A1, “COMPOSITION FOR PREVENTING OR TREATING MUSCLE DISEASE COMPRISING SARGASSUM SERRATIFOLIUM EXTRACT” (PUKYONG NATIONAL UNIVERSITY INDUSTRY- UNIVERSITY …, priority 2021, published 2025)
